{"source": "paper PMC11490992", "about": "(Microbial Cell Factories, 2024)", "target": "α-glucosidase", "test": "in vitro α-glucosidase inhibition assay, triplicate, serial dilutions", "format": "biochemical", "data": [{"smiles": "CC(C)=CCc1ccc2c(CC#N)c[nH]c2c1", "note": "[compound 2, 3-cyanomethyl-6-prenylindole]", "values": [{"measurement": "IC50 (μg/mL)^a", "value": 86.21, "unit": "µg/mL"}]}]}
